Measurements as given in patent publication US20230129788A1, “GLP-1/GLP-2 DUAL AGONISTS” (Zealand Pharma A/S, priority 2020, published 2023).
Starred links: 1 amine or outer side, 2 acyl side, 3 side chain; linkers in the order of their positions; H or OH if unused. Non-standard residues stand in square brackets, D forms with d. Groups on a side chain read outwards from the residue. *: point of attachment. C18 diacid = O=C(O)CCCCCCCCCCCCCCCCC(=O)*; γGlu = O=C(O)[C@H](CCC(=O)[*:2])N[*:1]; Aib = CC(C)(N)C(=O)O

Assays:
[1] = system: Total Parental Nutrition (TPN) Piglet Model; assay: Small intestine mass (weight per centimeter) in total parenteral nutrition (TPN) piglet model; assay type: in vivo; settings: piglets on TPN
Protocol: (§1) One-week-old piglets were placed in heated (25-30° C.) cages. Jugular and duodenal catheters were surgically implanted as described in paragraph 2 (method and material) in Jain 2015. Subsequently, preconditioned jackets and ambulatory pumps for TPN (total parenteral nutrition) delivery were fitted. Animals were started on their randomly assigned groups to receive enteral nutrition (EN; n=11), intravenous total parenteral nutrition plus vehicle (TPN; n=8) or TPN plus compound 18 (Cpd 18; n=13). Cpd 18 and vehicle were administered as daily subcutaneous injections at a dose of either 0.008 mg/kg (n=2), 0.033 mg/kg (n=2), 0.066 mg/kg (n=2) or 0.133 mg/kg (n=7).
(§2) Enteral animals (EN) received a swine milk replacement formula (formula LitterLife as described in Jain 2015, paragraph 2.6). All other animals received total parenteral nutrition (Clinimix E from Baxter as described in Jain 2015, paragraph 2.6).
Post-euthanasia (see Jain 2015, paragraph 2.7), the abdomen was opened, and the small intestine was removed. Small segments of the small bowel were sliced and weighed (see Jain 2015, paragraph 2.78). Tissue was then cut into smaller pieces, preserved for histology and snap-frozen in liquid nitrogen to be stored at −80° C. for analysis.

[2] = system: Total Parental Nutrition (TPN) Piglet Model; assay: Histology of small bowel, villous/crypt (V/C) ratio, in total parenteral nutrition (TPN) piglet model; assay type: in vivo, piglets
Protocol: as §1, §2
Segments of fresh tissue (2-3 cm) from the small intestine were fixed in 4% buffered formalin for 24 hours and then stored in 70% ethanol at room temperature for 24 hours. […] Using the small-bowel H&E slides, the mean villous height and crypt depth were quantified in vertically well-oriented villous-crypt columns with the slide reviewer blinded to the treatment to compute a villous/crypt (V/C) ratio for animals in each group.

Substance: H-H[Aib]EGSFTSELATILDK([γGlu-C18 diacid])QAARDFIAWLIQHKITD-OH [Cpd 18]
- mass of the proximal intestine (weight per centimeter) ([1]; daily subcutaneous injections 0.008, 0.033, 0.066 or 0.133 mg/kg, sacrifice on day 14, FIG. 1): preserved the mass in a dose-dependent fashion
- mass of the distal intestine (weight per centimeter) ([1]; daily subcutaneous injections 0.008, 0.033, 0.066 or 0.133 mg/kg, sacrifice on day 14, FIG. 2): preserved the mass in a dose-dependent fashion
- weight of the proximal intestine at the highest dose compared to animals on EN ([1]; highest dose (0.133 mg/kg daily s.c.), sacrifice on day 14, FIG. 1): approximately the same as in the animals on EN
- weight of the distal intestine at the highest dose, greater than that in the animals on TPN ([1]; highest dose (0.133 mg/kg daily s.c.), sacrifice on day 14, FIG. 2): approximately 50%
- histological section of the small bowel, villi and crypts ([2]; piglet on TPN, 0.133 mg/kg for 14 days, FIG. 6 compared to FIG. 4): villi and crypts are comparable to the animal receiving enteral nutrition
- V/C ratio of the small bowel ([2]; piglets on TPN, 0.133 mg/kg daily s.c., sacrifice on day 14, FIG. 3): completely preserved the V/C ratio to the same ratio seen in the animals on EN
